PubChem BioAssay AID2060501 (Molecular Pharmacology Branch, DTP, NCI, 2025)

System: 282377-053-R-J1-PDC complex spheroids, viability
Test: Anticancer human tumor 282377-053-R-J1-PDC patient-derived colon adenocarcinoma cell line growth inhibition [GQUAD]
Settings: for IC50: curve of first compound; for viability, T/C: stronger effect = lower value
Description: DNA G-quadruplex Stabilizer Agents in Combinations in Complex Spheroids
A high-throughput screen of multi-cell type tumor spheroids was designed to identify active combinations of DNA G-quadruplex stabilizer agents and targeted small molecules. Complex spheroids include a stromal component modeled by human endothelial cells (HUVEC) and fibroblasts modeled by human mesenchymal stem cells (MSCs). The concentration ranges selected for each drug and investigational agent were based upon clinically achievable concentrations if the clinical Cmax of the agent was known.
Compounds. The drugs and investigational agents: pidnarulex (CX-5461; NSC782164), APTO-253 (NSC789042), BRACO-19 (NSC847499), peposertib (NSC802822), ceralasertib (NSC780249), elimusertib (NSC800525), camonsertib (NSC841442), AZD-1390 (NSC803789), olaparib (NSC753686), talazoparib (NSC767125), ART-558 (NSC835418), sotorasib (NSC818433), MRTX-1133 (NSC836407), SN-38 (NSC673596), topotecan (NSC609699), etoposide (NSC141540), doxorubicin (NSC123127), gemcitabine (NSC613327), 5-fluorouracil (NSC19893), paclitaxel (NSC125973), vemurafenib (NSC761431), panobinostat (NSC761190), R-306465 (JNJ-16241199; NSC773264), adavosertib (NSC754352), TP-3654 (NSC805149), carboplatin (NSC241240), KSQ-4279 (NSC840948), and staurosporine (NSC755774) were obtained from the National Cancer Institute (NCI) Developmental Therapeutics Program Chemical Repository (34). The FDA-approved anticancer drug set is available from the NCI Developmental Therapeutics Program. […] The stock solutions were prepared in dimethyl sulfoxide (DMSO, Sigma-Aldrich, St. Louis, MO, cat. D2650) at 800-fold the tested concentration and stored at -70 degrees C prior to their use. All drugs and investigational agents were tested over a range starting from a high concentration at or near the clinical Cmax and decreasing in half-log increments. If the clinical Cmax for an agent had not been determined, the highest concentration tested was 10 microM.
2.3 Cell Culture. All cells were maintained in an incubator at 37 degrees C and 5% CO2 with 95% humidity. The PDC lines were cultured according to standard operating procedures established by the NCI PDMR. All PDCs were thawed and cultured in Matrigel-coated flasks prepared with a working solution of 1X Ham's F-12 nutrient mix, without supplementation (Invitrogen, cat. 11765054), 100 U/mL penicillin-streptomycin (Invitrogen, cat. 15140122), and 2.5% Matrigel (Corning Inc., cat. 354248) for the first three passages. The 857933-349-R-J2-PDC line was cultured in 6C/Colon 1B media, which includes advanced DMEM/F-12 (Thermo Fisher Scientific, cat. 12634028), 10 mM HEPES (Thermo Fisher Scientific, cat. 15630080), 1X GlutaMAX supplement (Thermo Fisher Scientific, cat. 35050061), 0.1 mg/mL primocin (InvivoGen, cat. ant-pm-2), 10% defined fetal bovine serum, heat inactivated (HyClone Laboratories Inc., cat. SH30070.03HI), 50% L-WRN conditioned media (ATCC, cat. CRL-3276), 1.25 mM N-Acetyl-L-cysteine (Sigma-Aldrich, cat. A9165), 10 mM nicotinamide (Sigma-Aldrich, cat. N0636), 1X B-27 supplement (Thermo Fisher Scientific, cat. 17504044), 1X N-2 supplement (Thermo Fisher Scientific, cat. 17502048), 10 microM Y-27632 dihydrochloride (Tocris Bioscience, cat. 1254), and 50 ng/mL human EGF recombinant protein (Thermo Fisher Scientific, cat. PHG0311). The 485176-168-R4-J1-PDC line was cultured in Panc media, which includes all 6C/Colon 1B media components plus 100 ng/mL human FGF-10 (Thermo Fisher Scientific, cat. 100-26), 500 nM SB-431542 (Selleckchem, cat. S1067), and gastrin (Tocris, cat. 3006).
[…]

[1] = second compound 0.0316 µM, first compound 0.0316 µM
[2] = second compound 0.0316 µM, first compound 0.1 µM
[3] = second compound 0.0316 µM, first compound 0.316 µM
[4] = second compound 0.0316 µM, first compound 1 µM
[5] = second compound 0.0316 µM, first compound 3.16 µM
[6] = second compound 0.0316 µM, first compound 10 µM
[7] = second compound 0.1 µM, first compound 0.0316 µM
[8] = second compound 0.1 µM, first compound 0.1 µM
[9] = second compound 0.1 µM, first compound 0.316 µM
[10] = second compound 0.1 µM, first compound 1 µM
[11] = second compound 0.1 µM, first compound 3.16 µM
[12] = second compound 0.1 µM, first compound 10 µM
[13] = second compound 0.316 µM, first compound 0.0316 µM
[14] = second compound 0.316 µM, first compound 0.1 µM
[15] = second compound 0.316 µM, first compound 0.316 µM
[16] = second compound 0.316 µM, first compound 1 µM
[17] = second compound 0.316 µM, first compound 3.16 µM
[18] = second compound 0.316 µM, first compound 10 µM
[19] = second compound 1 µM, first compound 0.0316 µM
[20] = second compound 1 µM, first compound 0.1 µM
[21] = second compound 1 µM, first compound 0.316 µM
[22] = second compound 1 µM, first compound 1 µM
[23] = second compound 1 µM, first compound 3.16 µM
[24] = second compound 1 µM, first compound 10 µM
[25] = second compound 3.16 µM, first compound 0.0316 µM
[26] = second compound 3.16 µM, first compound 0.1 µM
[27] = second compound 3.16 µM, first compound 0.316 µM
[28] = second compound 3.16 µM, first compound 1 µM
[29] = second compound 3.16 µM, first compound 3.16 µM
[30] = second compound 3.16 µM, first compound 10 µM
[31] = second compound 10 µM, first compound 0.0316 µM
[32] = second compound 10 µM, first compound 0.1 µM
[33] = second compound 10 µM, first compound 0.316 µM
[34] = second compound 10 µM, first compound 1 µM
[35] = second compound 10 µM, first compound 3.16 µM
[36] = second compound 10 µM, first compound 10 µM
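Note: spheroids exposed to compounds for 7 days before readout.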
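Throughout, for viability, T/C: percent of vehicle DMSO control viability with 100% = untreated-like growth.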

Compound: COc1cccc2c1C(=O)c1c(O)c3c(c(O)c1C2=O)CC(O)(C(=O)CO)CC3OC1CC(N)C(O)C(C)O1 (centres undefined) + CN(C)c1ccc(Nc2c3ccc(NC(=O)CCN4CCCC4)cc3nc3cc(NC(=O)CCN4CCCC4)ccc23)cc1
- IC50 (second compound 0.0316 µM): 1530 nM
- IC50 (second compound 0.1 µM): 1890 nM
- IC50 (second compound 0.316 µM): 1950 nM
- IC50 (second compound 1 µM): 2260 nM
- IC50 (second compound 3.16 µM): 2060 nM
- IC50 (second compound 10 µM): 2580 nM
- viability, T/C [1]: 114%
- viability, T/C [2]: 99%
- viability, T/C [3]: 92.8%
- viability, T/C [4]: 62.6%
- viability, T/C [5]: 27.7%
- viability, T/C [6]: 1.26%
- viability, T/C [7]: 104%
- viability, T/C [8]: 96.2%
- viability, T/C [9]: 109%
- viability, T/C [10]: 71.6%
- viability, T/C [11]: 31.1%
- viability, T/C [12]: 1.8%
- viability, T/C [13]: 89.4%
- viability, T/C [14]: 110%
- viability, T/C [15]: 98.6%
- viability, T/C [16]: 73.7%
- viability, T/C [17]: 32.4%
- viability, T/C [18]: 2.16%
- viability, T/C [19]: 85%
- viability, T/C [20]: 94.2%
- viability, T/C [21]: 106%
- viability, T/C [22]: 73.8%
- viability, T/C [23]: 39.5%
- viability, T/C [24]: 1.89%
- viability, T/C [25]: 97.8%
- viability, T/C [26]: 88.1%
- viability, T/C [27]: 96.5%
- viability, T/C [28]: 74.2%
- viability, T/C [29]: 35.2%
- viability, T/C [30]: 2.76%
- viability, T/C [31]: 97%
- viability, T/C [32]: 100%
- viability, T/C [33]: 105%
- viability, T/C [34]: 83.6%
- viability, T/C [35]: 42.9%
- viability, T/C [36]: 4.44%

Compound: Nc1ccn(C2OC(CO)C(O)C2(F)F)c(=O)n1 (centres undefined) + CN(C)c1ccc(Nc2c3ccc(NC(=O)CCN4CCCC4)cc3nc3cc(NC(=O)CCN4CCCC4)ccc23)cc1
- IC50 (second compound 0.0316 µM): 290 nM
- IC50 (second compound 0.1 µM): 296 nM
- IC50 (second compound 0.316 µM): 263 nM
- IC50 (second compound 1 µM): 271 nM
- IC50 (second compound 3.16 µM): 227 nM
- IC50 (second compound 10 µM): 228 nM
- viability, T/C [1]: 112%
- viability, T/C [2]: 68.5%
- viability, T/C [3]: 49.7%
- viability, T/C [4]: 35.8%
- viability, T/C [5]: 32.5%
- viability, T/C [6]: 20.7%
- viability, T/C [7]: 114%
- viability, T/C [8]: 78.7%
- viability, T/C [9]: 42.9%
- viability, T/C [10]: 37.7%
- viability, T/C [11]: 30.8%
- viability, T/C [12]: 20.3%
- viability, T/C [13]: 115%
- viability, T/C [14]: 77.9%
- viability, T/C [15]: 40.9%
- viability, T/C [16]: 35.8%
- viability, T/C [17]: 33.7%
- viability, T/C [18]: 19.7%
- viability, T/C [19]: 95%
- viability, T/C [20]: 77.6%
- viability, T/C [21]: 42.7%
- viability, T/C [22]: 35.7%
- viability, T/C [23]: 32.7%
- viability, T/C [24]: 20.3%
- viability, T/C [25]: 87.6%
- viability, T/C [26]: 59.9%
- viability, T/C [27]: 44.5%
- viability, T/C [28]: 38.3%
- viability, T/C [29]: 38.5%
- viability, T/C [30]: 26.9%
- viability, T/C [31]: 92.1%
- viability, T/C [32]: 74%
- viability, T/C [33]: 40.2%
- viability, T/C [34]: 30.9%
- viability, T/C [35]: 36.3%
- viability, T/C [36]: 22.8%
